# Experimental data: a melting point compilation (Tetko et al.; mined from patent text by program, amines drawn as free bases though some values may be those of a salt)
row,Compound,melting point
1,COc1ccc2[nH]c(C(=O)N3CC(CCl)c4c3cc(N)c3ccccc43)cc2c1 (stereo not drawn),250 to 255 °C
2,Cc1ccc(S(=O)(=O)OCCOc2ccc(Nc3ncc(C#N)c(-c4ccccc4)n3)cc2)cc1,147 °C
3,COCCOc1c(F)c(Oc2ccc(S(C)(=O)=O)nc2)cc2cc(C3=NCC(CCO)S3)[nH]c12 (stereo not drawn),160 to 161 °C
4,CCCCCCCCCCCCc1c(C(=O)OCC)[nH]c(C)c1C,70 to 71 °C
5,CCC(Oc1ccc(CCC(=O)c2ccc(-c3ccc(C(F)(F)F)cc3)s2)cc1)C(=O)O (stereo not drawn),116 to 117 °C
6,Nc1cc(-c2nnc(SCc3cccc(F)c3)o2)ccn1,175 to 176 °C
7,CN1CCNC1=Nc1ccccc1N1CCOCC1,156 °C
8,CC(C)c1nc2c(c(-c3ccc(F)cc3)c1CO)CCC2(C)C,141 to 143 °C
9,CC(C)=CC(C#N)NC(=O)c1cn(C)nc1C (stereo not drawn),110 to 112 °C
10,CCOC(=O)c1sc(NC(=O)c2cc(C(F)(F)F)cc(C(F)(F)F)c2)nc1C(F)(F)C(F)(F)F,154 to 155 °C
11,Cc1nc(-c2ccc(-c3ccccc3S(=O)(=O)Nc3onc(C)c3C)cc2)co1,90 to 100 °C
12,CCCn1c(=O)c(-c2ccccc2)c2n(c1=O)CCCS2(=O)=O,179 to 180 °C
13,Nc1nccn2c(C3CCC3)nc(-c3cccc(OCc4ccccc4)c3F)c12,88 to 89 °C
14,CCCCOCCOc1ccc(-c2cnc(N3CCC(C)C3)c(/C=C(\C)C(=O)O)c2)cc1 (stereo not drawn),106 to 108 °C
15,Cn1c(OC2CCOC2)n[nH]c1=O (stereo not drawn),164 °C
16,O=C(O)c1ccc(NCC(O)C(O)C(O)C(O)CO)cc1 (stereo not drawn),111 to 112 °C
17,CCCCc1ncc(/C=C(\Cc2cccs2)C(=O)O)n1CCc1ccc(CC(=O)O)cc1,169 to 171 °C
18,O=C(O)c1cc(OCC(F)(F)F)cc(Oc2cccc(C(F)(F)F)c2)n1,93 to 95 °C
19,c1ccc(CN2CC3Cc4ccccc4OC3C2)cc1 (stereo not drawn),68 to 70 °C
20,CC(=O)SC[C@H]1CCCCCC[C@H](C(=O)N2C[C@H](O)C[C@H]2C(=O)OCc2ccccc2)NC1=O,145 °C
21,CCc1cc(O)c(C(C)=O)c(OC2OC(COC(C)=O)C(OC(C)=O)C(OC(C)=O)C2OC(C)=O)c1 (stereo not drawn),125 to 127 °C
22,O=Cc1ccc(N2CCC3(CC2)OCCO3)c(Br)c1,63 to 64 °C
23,O=C(NCCCN1CCN(c2ccc(F)cc2OCC(F)(F)F)CC1)c1csc2c(=O)cc(-c3ccccc3)oc12,189 to 191 °C
24,CC#CCOc1cc(Oc2c(F)cc(F)cc2F)ncn1,60.3 °C
25,COc1ccc(-c2nc(Sc3ccccc3)[nH]c2-c2ccc(OC)cc2)cc1,177 to 179 °C

row,Compound,melting point
1,N=C(N)c1ccc(NC(C(=O)O)c2ccccc2OCC(=O)O)cc1 (racemic),223 °C
2,COc1ccccc1N1CCN(CCn2c(=O)c3ccsc3n(C)c2=O)CC1,174 to 176 °C
3,CC(=O)Nc1nc(C)c(S(=O)(=O)NC(CO)CO)s1,217 °C
4,O=C(O)CSCCCCCCn1nc(-c2ccccc2)c(-c2ccccc2)c1-c1ccccc1,92 to 97 °C
5,O=C1CN=C(c2ccccc2)c2cc(C(=O)c3ccc(Cl)cc3)ccc2N1,230 °C
6,Cc1cc(N)c2cc(NC(=O)C=Cc3ccccc3C(F)(F)F)ccc2n1,272 to 273 °C
7,CCOC(=O)c1ncc2[nH]c3ccc(C4CCCC(=O)C4)cc3c2c1C (stereo not drawn),182 to 189 °C
8,NC(=O)c1c(CN2CCC(c3ccccc3)(c3ccccc3)CC2)ncn1Cc1ccc(Cl)cc1,227 to 228 °C
9,CCCCCCCCCCCCCCC(=O)C(=O)N[C@@H](CCCC)C(=O)NCC(=O)OCC,63 to 65 °C
10,COc1ccc(-c2cccc(C(=O)NCCC#N)c2)c2cc(Cc3cccc(C(F)(F)F)c3)oc12,126 to 127 °C
11,CCCN(CCC)C1Cc2cc3c(cc2C1)C(=O)NC3 (stereo not drawn),206 to 208 °C
12,COC1(c2cccc(S(=O)(=O)c3ccc4c(ccc(=O)n4C)c3)c2)CCOCC1,204 to 207 °C
13,CN(C)CCCN1C(=O)c2cc(Cl)c(S(N)(=O)=O)cc2C1=O,192 to 194 °C
14,COc1cc(Nc2nccc(Nc3ccc(OCc4ccccc4)cc3)n2)cc(OC)c1OC,161 to 164 °C
15,Cc1ccc(-c2cc(N3CCCC3)c(C#N)c3c2-c2ccccc2C3)cc1,182 to 184 °C
16,CON=C(c1ccccc1)c1ccc2c(c1)C(C)(C)CCN2CCOc1ccc(CC(OC(C)=O)C(=O)O)cc1 (stereo not drawn),64 to 66 °C
17,O=c1ccn(C2OC(CO)C(O)C2Cl)c(=O)[nH]1 (stereo not drawn),206 to 207 °C
18,O=C(O)C1CCC(c2ccc(O)cc2)CC1 (stereo not drawn),248 to 250 °C
19,COC(=O)C[C@H](O)CC(=O)C=Cc1c(-c2ccc(F)cc2)c(-c2ccccc2)c(C(=O)NCc2ccc(F)cc2)n1C(C)C,62 to 63 °C
20,COc1ccc(CBr)cc1-c1nsc2ccc(-n3c(=O)cc(C(F)(F)F)n(C)c3=O)cc12,158 to 160 °C
21,O=C1Nc2ccc3ccccc3c2CCC1(Cl)Cl,187 to 191 °C
22,C#CC(=O)NCc1ccccc1,165 to 167 °C
23,CCCc1nc2c(N)nc3cc(OCc4ccccc4)ccc3c2s1,175 to 178 °C
24,Cc1cc2c(c(C)c1O)C(C)(C)C(C)C2C (stereo not drawn),55 to 57 °C
25,CCCCCCCCOc1ccc(C(=O)OC(C)c2cc3c(s2)-n2c(C)nnc2CN=C3c2ccccc2Cl)cc1 (stereo not drawn),56 to 61 °C

# Now from value to molecule:
row,melting point,Compound
1,109 to 110 °C,COc1ccccc1-c1ccc(C[C@H](NC(=O)C(C)c2c(Cl)cccc2Cl)C(=O)O)cc1 (stereo partly drawn)
2,184 to 186 °C,COC(=O)c1ccc(Sc2ccc(O)cc2)cc1
3,153 °C,CCOc1ccc(CNC(=O)n2cc(F)c(=O)[nH]c2=O)cc1OC
4,135 °C,O=C(Oc1ccccc1)c1ccccc1S
5,81 °C,COC(=O)[C@H](Cc1cc(F)cc(F)c1)NC(=O)OC(C)(C)C
6,183 to 185 °C,Cc1ccc2c(-c3cc(C(C)(C)C)c(O)c(C(C)(C)C)c3)nn(CCO)c2n1
7,269 to 271 °C,CN(C)Cc1c(-c2ccc(O)cc2)[nH]c2ncnc(Nc3cccc(Cl)c3)c12
8,38.5 to 39 °C,COC(=O)Cc1c(Br)csc1Br
9,114 °C,CCOC(=O)c1c(Nc2ccccc2[N+](=O)[O-])c(C)cn1C
10,156 to 157 °C,CC(C)(C)OC(=O)C(Cc1ccccc1)NC(=O)c1ccc2c(Cl)cnc(Cl)c2c1 (racemic)
11,260 to 262 °C,CCc1cccc(C)c1CNc1cc(C(=O)N(C)C)nc2c(C)c(C)[nH]c12
12,86 to 88 °C,Oc1cccc(O)c1Br
13,160 to 161 °C,COC(=O)/C(=C/c1cccc([N+](=O)[O-])c1)CC(=O)O
14,144 to 146 °C,CCOC(=O)CCCOc1ccc(C(N)=O)cc1
15,236 to 237 °C,O=C(O)Cc1c(C(=O)c2cc3ccccc3cn2)[nH]c2cc(Cl)ccc12
16,174 to 175 °C,CCOC(=O)c1ccc2c(O)c(C(=O)OCC)c(=O)n(C)c2n1
17,106 to 108 °C,CN(C)C(=O)N1CC(Oc2ccc(C(F)(F)F)cc2Cl)C1
18,90 to 91 °C,CCOC(=O)C(C(=O)OCC)C(C#N)(c1ccc(F)cc1)c1ccc(F)cc1
19,174 to 175 °C,CCCn1cc(C(=O)NCc2ccc(Cl)cc2)c(=O)c2cc(CO)sc21
20,87 to 89 °C,COC(=O)C(C)(C)Nc1cc(Cl)ccc1[N+](=O)[O-]
21,87 to 90 °C,Cc1cn(C(C)(C)C(=O)NCc2ccccc2)nc1-c1ccccc1
22,197 °C,CCC1OC(=O)N(CCc2ccc(NC(=O)c3cccs3)cc2)N=C1c1ccc(OC)c(OC)c1 (stereo not drawn)
23,69 to 70.5 °C,CCOC(=O)Nc1ccc2ccccc2c1
24,140 to 150 °C,"CC(=O)N(N1C(=O)C(NC(=O)Nc2cccc(C)c2)CC(c2ccccc2)CC1c1ccccc1)C(C)(C)C (single isomer, unassigned; (-))"

row,melting point,Compound
1,95 to 105 °C,COc1ccc(N)cc1Oc1ncc(Cl)cc1Cl
2,110 to 112 °C,CCOC(=O)C1=C(COCc2nc(CCN)cs2)NC(C)=C(C(=O)OC)C1c1cccc(Cl)c1Cl (stereo not drawn)
3,195 to 196 °C,CS(=O)(=O)Oc1ccc(-n2nc(C#N)cc2-c2ccc(S(C)(=O)=O)cc2)cc1
4,179 to 180 °C,O=C(O)Cc1ccc(OCc2ccc3oc([N+](=O)[O-])c(-c4ccccc4)c3c2)cc1
5,93 to 94 °C,COc1ccc(C(C)c2cc3c(cc2OC)OCO3)cc1 (stereo not drawn)
6,123 to 125 °C,CCOC(=O)C(OCC)(OCC)C(=O)c1cccc2snnc12
7,160 to 162 °C,O=C(NCc1ccccc1)c1ccnc(NC(=O)c2cccs2)c1
8,189 to 191 °C,Cc1cccc(NC(=O)OC(C)(C)C)c1COc1cccn2c(C=O)c(C)nc12
9,203 to 205 °C,Cc1oc(=O)c(Nc2ccc(I)cc2)nc1Cl
10,118 to 120 °C,O=C(O)CCCCc1ccc(CCNS(=O)(=O)c2ccc(Cl)cc2)cc1
11,315 °C,O=C1CSC(=S)N1N=c1sc2ccc([N+](=O)[O-])cc2s1
12,> 250 °C,COc1ccc(CCNc2nc(O)c(C(=O)c3ccco3)c(O)n2)cc1OC
13,118 to 120 °C,CSCC(=O)[C@H](Cc1ccccc1)NC(=O)[C@H](CC(C)C)NC(C)=O
14,104 to 105 °C,Cc1nn(C)c(OCC(=O)C(C)(C)C)c1C(=O)c1ccc(Cl)cc1Cl
15,81 to 85 °C,CC=CCn1c(C)c(C)c2cnnc(SCc3ccc(Cl)cc3Cl)c21
16,190 to 192 °C,O=C(c1ccccc1)c1nc(Br)c2n1CCC2C(=O)O (stereo not drawn)
17,102 to 104 °C,CNC(=O)CC1CN=C(c2cc3cc(Oc4ccc(COC)nc4)cc(OC)c3[nH]2)S1 (stereo not drawn)
18,250 to 251 °C,CC(=O)Nc1c(C(=O)c2cccc(S(N)(=O)=O)c2)[nH]c2cc(Cl)ccc12
19,70 to 75 °C,CCn1ncc(C(=O)c2ccc(S(C)(=O)=O)c(C3=NOCC3)c2Cl)c1OCc1ccccc1
20,194 to 195 °C,COC(=O)c1nc(Br)cc(N)c1Cl
21,162 to 165 °C,COc1cc(C2(C)COc3c(OC)cc(C=O)cc32)ccc1O (stereo not drawn)
22,62 to 63 °C,CCOC(=O)C(C(=O)OCC)N(Cc1ccccc1)Cc1ccc(OC)cc1OC
23,113 to 114 °C,CSc1ccc(C(=O)c2ccc(SC)cc2O)cc1
24,114 to 115 °C,CS(=O)(=O)c1ccc(C2=C(c3ccc(F)c(F)c3)CCC2)cc1
